SMILES strings stand for the structures. Bounds are passed on as bounds.

human NaV1.6 (hNaV1.6), sequence (Q9UQD0 whole entry): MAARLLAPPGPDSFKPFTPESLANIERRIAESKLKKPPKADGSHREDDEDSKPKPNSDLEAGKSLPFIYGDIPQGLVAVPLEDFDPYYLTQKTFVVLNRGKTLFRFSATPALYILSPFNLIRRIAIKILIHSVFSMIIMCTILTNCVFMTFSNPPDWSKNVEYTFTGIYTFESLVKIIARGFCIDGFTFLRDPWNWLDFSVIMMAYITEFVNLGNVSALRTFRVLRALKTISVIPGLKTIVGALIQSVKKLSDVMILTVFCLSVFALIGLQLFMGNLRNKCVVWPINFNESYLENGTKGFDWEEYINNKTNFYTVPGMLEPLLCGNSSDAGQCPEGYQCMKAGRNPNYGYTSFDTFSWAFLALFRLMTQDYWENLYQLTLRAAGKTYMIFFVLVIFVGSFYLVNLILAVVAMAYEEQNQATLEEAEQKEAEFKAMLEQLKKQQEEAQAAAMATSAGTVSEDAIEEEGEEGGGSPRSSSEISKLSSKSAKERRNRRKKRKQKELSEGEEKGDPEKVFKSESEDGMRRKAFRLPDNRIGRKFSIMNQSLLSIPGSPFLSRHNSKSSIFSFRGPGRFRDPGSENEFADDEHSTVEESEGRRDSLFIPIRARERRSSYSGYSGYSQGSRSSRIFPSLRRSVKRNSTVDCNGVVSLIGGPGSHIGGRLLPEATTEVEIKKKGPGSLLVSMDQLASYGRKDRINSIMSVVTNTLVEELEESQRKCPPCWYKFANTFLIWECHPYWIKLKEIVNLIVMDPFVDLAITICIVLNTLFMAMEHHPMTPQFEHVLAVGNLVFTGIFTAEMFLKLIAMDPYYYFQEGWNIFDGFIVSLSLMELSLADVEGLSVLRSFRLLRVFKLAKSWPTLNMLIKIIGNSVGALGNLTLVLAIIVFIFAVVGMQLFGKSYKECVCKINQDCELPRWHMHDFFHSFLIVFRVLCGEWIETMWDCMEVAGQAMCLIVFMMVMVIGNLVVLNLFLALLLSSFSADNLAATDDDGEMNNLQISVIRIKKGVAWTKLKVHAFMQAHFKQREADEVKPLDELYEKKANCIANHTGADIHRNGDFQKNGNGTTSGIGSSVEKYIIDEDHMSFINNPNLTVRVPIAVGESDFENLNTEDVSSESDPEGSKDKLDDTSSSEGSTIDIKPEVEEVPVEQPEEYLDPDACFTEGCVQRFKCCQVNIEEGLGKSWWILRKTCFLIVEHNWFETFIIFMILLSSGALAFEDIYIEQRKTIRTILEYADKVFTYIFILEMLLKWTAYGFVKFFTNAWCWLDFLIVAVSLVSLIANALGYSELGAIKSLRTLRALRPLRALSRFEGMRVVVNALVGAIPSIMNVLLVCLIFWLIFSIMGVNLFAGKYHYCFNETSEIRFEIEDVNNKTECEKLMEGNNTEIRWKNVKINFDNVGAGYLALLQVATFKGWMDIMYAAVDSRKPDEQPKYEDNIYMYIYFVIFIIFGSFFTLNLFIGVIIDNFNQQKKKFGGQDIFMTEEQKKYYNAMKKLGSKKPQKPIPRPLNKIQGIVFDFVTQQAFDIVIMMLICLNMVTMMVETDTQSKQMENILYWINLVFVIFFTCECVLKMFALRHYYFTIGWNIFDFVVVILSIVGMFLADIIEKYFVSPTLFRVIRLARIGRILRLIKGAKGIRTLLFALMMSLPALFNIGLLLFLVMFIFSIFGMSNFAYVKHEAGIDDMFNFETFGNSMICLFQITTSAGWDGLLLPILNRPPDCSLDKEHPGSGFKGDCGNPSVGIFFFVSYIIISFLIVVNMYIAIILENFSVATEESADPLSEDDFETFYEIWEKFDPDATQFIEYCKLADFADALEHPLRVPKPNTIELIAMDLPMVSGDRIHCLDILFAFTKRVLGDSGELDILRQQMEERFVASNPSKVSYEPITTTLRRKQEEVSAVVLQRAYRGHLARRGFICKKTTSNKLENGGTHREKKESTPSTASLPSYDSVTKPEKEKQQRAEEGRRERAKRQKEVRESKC

One experiment deals with human NaV1.6 (hNaV1.6) (Homo sapiens (Human), UniProt Q9UQD0). Description: INaL inhibition at hNaV1.6, PatchXpress electrophysiology. It is filed as cell-based. As to conditions: 1 μM; HEK-293 cells expressing hNaV1.6; late current evoked by 300 nM ATX-II. How it is done:
Functional characterization of exemplary compounds to modulate INaL expressed by the Nay 1.6 voltage-gated sodium channel was accomplished using the PatchXpress™ high throughput electrophysiology platform (Molecular Devices, Sunnyvale, Calif.). HEK-293 cells expressing recombinant, human NaV1.6 (hNaV1.6) were grown in DMEM/high-glucose Dulbecco's modified, 10% FBS, 2 mM sodium pyruvate, 10 mM HEPES and 400 μg/mL G418. Cells were grown to 50%-80% confluency prior to harvesting. […] The onboard liquid handling facility of the PatchXpress was used for dispensing cells and applying test compounds. Nay late currents were evoked by the application of 300 nM ATX-II. […] INaL amplitude and stability were determined by analyzing the mean current amplitude over the final 20 ms of the test pulse. […] Percent steady-state inhibition of INaL was calculated as: [(INaL_compound)/(INaL_control)]*100, where INaL_compound and INaL_control represent INaL recorded in the presence or absence of compound, respectively.
Turning to `FC(F)(F)Oc1ccc(-c2ccc3nnc(C4CC4(F)F)n3n2)cc1` (single isomer, unassigned) [Compound 46], the “INaL v1.6 (1 μM, % Inhibition)” value was “C (inhibition of greater than 70%)”.
With `COCc1cc(OC(F)(F)F)ccc1-c1cn2c(C(F)(F)F)nnc2cn1` [Compound 66], the “INaL v1.6 (1 μM, % Inhibition)” value is listed as “C (inhibition of greater than 70%)”.
In the case of `Fc1cc(-c2cn3c(C(F)(F)F)nnc3cn2)cnc1OC1CC(F)(F)C1` [Compound 84], the “INaL v1.6 (1 μM, % Inhibition)” value is recorded as “C (inhibition of greater than 70%)”.

Staying with this experiment, now noted: HEK293, read-out: INaL v1.6 (1 μM, % Inhibition).
`FC(F)(F)Oc1ccc(-c2ccc3nnc(CC4CCCOC4)n3n2)cc1` (stereo not drawn) [Compound 38]: the inhibition (commonly the drop in the measured response relative to a control, in per cent) at 1 µM lay in the range of 30 to 70%.
Consider `FC(F)(F)Oc1ccc(-c2ccc3nnc(CC4CCOCC4)n3n2)cc1` [Compound 39], for which the inhibition at 1 µM is below 30%.
Take `CC(C)(C#N)c1ccc(-c2cn3c(C(F)F)nnc3cn2)cc1` [Compound 57]: the inhibition at 1 µM is below 30%.
`N#CC1(c2ccc(-c3ccc4nnc(C(F)(F)F)n4n3)cc2)CCC1` [Compound 60]: the inhibition at 1 µM fell in the range of 30 to 70%.
With `Cc1nnc2cnc(-c3ccc(OC(F)(F)F)cc3)cn12` [Compound 95], the inhibition at 1 µM is below 30%.
On to `N#CC1(c2ccc(-c3ccc4nnc(C(F)(F)F)n4n3)cc2F)CC1` [Compound 104], for which the inhibition at 1 µM was below 30%.
On to `FC(F)(F)c1nnc2ccc(-c3ccc(C4CC4(F)F)cc3)nn12` (stereo not drawn) [Compound 120, 6-[4-(2,2-difluorocyclopropyl)phenyl]-3-(trifluoromethyl)-[1,2,4]triazolo[4,3-b]pyridazine], for which the inhibition at 1 µM is above 70%.
Turning to `FC(F)(F)c1nnc2ccc(-c3ccc([C@H]4CC4(F)F)cc3)nn12` [Compound 121, 6-[4-[(1R)-2,2-difluorocyclopropyl]phenyl]-3-(trifluoromethyl)-[1,2,4]triazolo[4,3-b]pyridazine], the inhibition at 1 µM was above 70%.

The experiment is the same for the next values; noted with them: HEK293; 1 μM; HEK-293 cells expressing hNaV1.6; late current evoked by 300 nM ATX-II; read-out: INaL v1.6 (1 μM, % Inhibition).
With `FC(F)(F)Oc1ccc(-c2cn3c(C[C@H]4CCCOC4)nnc3cn2)cc1` (single isomer, unassigned) [Compound 154], the inhibition at 1 µM was below 30%.
Same read-out and setting: the figure for `FC(F)(F)Oc1ccc(-c2cn3c(C[C@@H]4CCCOC4)nnc3cn2)cc1` (single isomer, unassigned) [Compound 155] is below 30%.
With `N#Cc1cc(C(F)(F)F)ccc1-c1ccc2nnc(C(F)(F)F)n2n1` [Compound 4], the inhibition at 1 µM was below 30%.
Same read-out and setting: the figure for `COc1cc(OC(F)(F)F)ccc1-c1ccc2nnc(C(F)(F)F)n2n1` [Compound 5] is above 70%.
For `FC(F)(F)Oc1ccc(-c2ccc3nnc(C(F)(F)F)n3n2)c(C2COC2)c1` [Compound 32], the inhibition at 1 µM lay in the range of 30 to 70%.
With `COc1cc(OC(F)(F)F)ccc1-c1ccc2nnc(C(F)(F)OC)n2n1` [Compound 33], the inhibition at 1 µM was above 70%.
Turning to `COc1cc(OC(F)(F)F)ccc1-c1ccc2nnc(C(F)(F)OCC3CC3)n2n1` [Compound 34], the inhibition at 1 µM is above 70%.
For `FC(F)(F)Oc1ccc(Cl)c(-c2ccc3nnc(C(F)(F)F)n3n2)c1` [Compound 35], the inhibition at 1 µM was below 30%.
As for `Cc1ccc(OC(F)(F)F)cc1-c1ccc2nnc(C(F)(F)F)n2n1` [Compound 36], the inhibition at 1 µM was below 30%.
Turning to `N#Cc1ccc(OC(F)(F)F)cc1-c1ccc2nnc(C(F)(F)F)n2n1` [Compound 40], the inhibition at 1 µM is below 30%.
Turning to `FC(F)c1nnc2cnc(-c3ccc(OC(F)(F)F)cc3)cn12` [Compound 47], the inhibition at 1 µM is 30 to 70%.
Consider `COc1cc(OC(F)(F)F)ccc1-c1cn2c(C(F)F)nnc2cn1` [Compound 48], for which the inhibition at 1 µM was below 30%.
For the compound `FC(F)c1nnc2cnc(-c3ccc(OCC(F)(F)F)nc3)cn12` [Compound 50], the inhibition at 1 µM is 30 to 70%.
For the compound `COC(C)(C)c1ccc(-c2cn3c(C(F)F)nnc3cn2)cc1` [Compound 51], the inhibition at 1 µM is below 30%.
For `FC(F)(F)Oc1ccc(-c2cnc3nnc(C(F)(F)F)n3c2)cc1` [Compound 54], the inhibition at 1 µM was below 30%.
On the same count and under the same terms, under `FC(F)(F)Oc1ccc(-c2cnc3nncn3c2)cc1` [Compound 55] stands below 30%; under `FC(F)(F)Oc1ccc(-c2cn3c(C(F)(F)F)nnc3cn2)cc1` [Compound 56], above 70%; under `FC(F)(F)COc1ccc(-c2ccc3nnc(C(F)(F)F)n3n2)nc1` [Compound 58], 30 to 70%.
Take `FC(F)(F)c1ccc(-c2cn3c(C(F)(F)F)nnc3cn2)cc1` [Compound 62]: the inhibition at 1 µM fell in the range of 30 to 70%.
On the same count and under the same terms, under `COc1cc(C2(C#N)CC2)ccc1-c1cn2c(C(F)(F)F)nnc2cn1` [Compound 64] stands below 30%.
Still for that read-out and setting: the figure for `N#CC1(c2ccc(-c3cn4c(C(F)(F)F)nnc4cn3)cc2)CC1` [Compound 67] is below 30%; for `COc1cc(OC(F)(F)F)ccc1-c1cn2c(C(F)(F)F)nnc2cn1` [Compound 70] it is 30 to 70%.
Turning to `N#CC1(c2ccc(-c3cn4c(C(F)(F)F)nnc4cn3)cc2)CCC1` [Compound 71], the inhibition at 1 µM lay within 30 to 70%.
`CCOc1ccc(-c2cn3c(C(F)(F)F)nnc3cn2)cc1` [Compound 74]: the inhibition at 1 µM is below 30%.
Turning to `CC(C)c1nnc2cnc(-c3ccc(OC(F)(F)F)cc3)cn12` [Compound 75], the inhibition at 1 µM was below 30%.
The same measure, in the same setting: under `Fc1cc(C(F)(F)F)ccc1-c1cn2c(C(F)(F)F)nnc2cn1` [Compound 76] stands 30 to 70%.
The same measure, in the same setting: the figure for `Fc1cc(-c2cn3c(C(F)(F)F)nnc3cn2)ccc1OC(F)(F)F` [Compound 79] is above 70%; for `FC(F)(F)Oc1ccc(-c2cn3c(C4CC4)nnc3cn2)cc1` [Compound 80] it is 30 to 70%; for `FC1(F)CC(c2nnc3cnc(-c4ccc(OC(F)(F)F)cc4)cn23)C1` [Compound 82] it is 30 to 70%.
In the case of `Fc1cc(-c2ccc3nnc(C4CC(F)(F)C4)n3n2)cnc1OCC(F)(F)F` [Compound 83], the inhibition at 1 µM lay in the range of 30 to 70%.
Take `Fc1cc(-c2ccc3nnc(C(F)F)n3n2)cnc1OCC(F)(F)F` [Compound 85]: the inhibition at 1 µM was below 30%.
On the same count and under the same terms, under `FC1(F)CC(Oc2ccc(-c3cn4c(C(F)(F)F)nnc4cn3)cn2)C1` [Compound 86] stands 30 to 70%; under `Fc1cc(-c2ccc3nnc(C4(F)CC4)n3n2)cnc1OCC(F)(F)F` [Compound 88], 30 to 70%; under `COc1cc(C(F)(F)F)ccc1-c1ccc2nnc(C(F)(F)F)n2n1` [Compound 89], above 70%.
On to `Fc1cc(-c2ccc3nnc(C(F)(F)F)n3n2)cnc1OC1CC(F)(F)C1` [Compound 93], for which the inhibition at 1 µM is above 70%.
Turning to `Cc1cc(OC2CC(F)(F)C2)ccc1-c1ccc2nnc(C(F)(F)F)n2n1` [Compound 94], the inhibition at 1 µM was 30 to 70%.
Regarding `COC(F)(F)c1nnc2cnc(-c3ccc(OC(F)(F)F)cc3)cn12` [Compound 97], the inhibition at 1 µM was above 70%.
Same read-out and setting: the figure for `Cc1cc(-c2ccc3nnc(C(F)(F)F)n3n2)ccc1C(F)(F)F` [Compound 98] is above 70%; for `Fc1cc(-c2ccc3nnc(C(F)(F)F)n3n2)cnc1C(F)(F)F` [Compound 99] it is below 30%.
With `Fc1cc(-c2ccc3nnc(C(F)(F)F)n3n2)ccc1OC1CC(F)(F)C1` [Compound 100], the inhibition at 1 µM fell in the range of 30 to 70%.
Take `FC(F)OCc1cc(OC(F)(F)F)ccc1-c1ccc2nnc(C(F)(F)F)n2n1` [Compound 101]: the inhibition at 1 µM lay in the range of 30 to 70%.
As for `CC(C)(O)c1ccc(-c2ccc3nnc(C(F)(F)F)n3n2)cc1` [Compound 102], the inhibition at 1 µM is below 30%.
As for `Fc1cc(-c2ccc3nnc(C4CC4)n3n2)cnc1OCC(F)(F)F` [Compound 103], the inhibition at 1 µM lay within 30 to 70%.
For `COC(F)(F)c1nnc2ccc(-c3ccc(C(F)(F)F)cc3C)nn12` [Compound 111], the inhibition at 1 µM is above 70%.
For `O=C(Cc1nnc2cnc(-c3ccc(OC(F)(F)F)cc3)cn12)N1CCCC1` [Compound 114], the inhibition at 1 µM is 30 to 70%.
On to `OCc1cc(-c2ccc3nnc(C(F)(F)F)n3n2)ccc1OC(F)(F)F` [Compound 115, [2-(trifluoromethoxy)-5-[3-(trifluoromethyl)-[1,2,4]triazolo[4,3-b]pyridazin-6-yl]phenyl]methanol], for which the inhibition at 1 µM is 30 to 70%.
In the case of `FC(F)Oc1ccc(-c2ccc3nnc(C(F)(F)F)n3n2)cc1` [Compound 116], the inhibition at 1 µM was above 70%.
Take `FC(F)(F)OCc1ccc(-c2ccc3nnc(C(F)(F)F)n3n2)cc1` [Compound 118]: the inhibition at 1 µM is above 70%.
The same measure, in the same setting: the figure for `FCCc1nnc2cnc(-c3ccc(OC(F)(F)F)cc3)cn12` [Compound 119] is below 30%; for `CC(Oc1ncc(-c2ccc3nnc(C(F)(F)F)n3n2)cc1F)C(F)(F)F` (stereo not drawn) [Compound 128] it is above 70%.
In the case of `FC(F)(F)Oc1ccc(-c2cn3c(C[C@H]4CCCCO4)nnc3cn2)cc1` [Compound 129, 3-[[(2R)-tetrahydropyran-2-yl]methyl]-6-[4-(trifluoromethoxy)phenyl]-[1,2,4]triazolo[4,3-a]pyrazine], the inhibition at 1 µM is below 30%.
With `FC(F)(F)Oc1ccc(-c2cn3c(C[C@@H]4CCCCO4)nnc3cn2)cc1` [Compound 130, 3-[[(2S)-tetrahydropyran-2-yl]methyl]-6-[4-(trifluoromethoxy)phenyl]-[1,2,4]triazolo[4,3-a]pyrazine], the inhibition at 1 µM is 30 to 70%.

The record behind these values is patent US11629146B2, “Substituted [1,2,4]triazolo[4,3-a]pyrazines as modulators of sodium channel activity” (Praxis Precision Medicines, Inc., priority 2016, dated 2023).
